Patent publication US7964565B2, “Method of inhibiting inflammation in a mammal by administering Bcl protein” (University of Washington Center for Commercialization, a …, priority 2004, dated 2011)

B1: rA1: human A1 minus 25 amino acids at the carboxy terminal and addition of 6 histidine on the remaining protein (protein, listed as Homo sapiens)
chain: MTDCEFGYIYRLAQDYLQCVLQIPQPGSGPSKTSRVLQNVAFSVQKEVEKNLKSCLDNVNVVSVDTARTLFNQVMEKEFEDGIINWGRIVTIFAFEGILIKKLLRQQIAPDVDTYKEISYFVAEFIMNNTGEWIRQNGGWENGFVKKFEPKSHHHHHH

Columns and labels:
[1] = system: C57BL/6 mice, hind-limb skeletal muscle ischemia-reperfusion injury; assay: Hind-limb tourniquet ischemia-reperfusion, plasma creatine kinase; assay type: in vivo, mouse; conditions: tourniquet 90 min, reperfusion 3 hours
Description: Skeletal muscle was made ischemic by applying a tourniquet to the hind-limbs of C57BL/6 mice for 90 minutes, then removing the tourniquet and allowing reperfusion for an additional 3 hours. Mice were treated with active peptide 1 (SEQ ID NO:17) or peptide 2 (SEQ ID NO:18) or peptide 3 (SEQ ID NO:19), or with the scrambled (control) peptide (SEQ ID NO:20). Peptide-1 (SEQ ID NO:17) is from the BH4 region of Bcl-2. Peptide-2 (SEQ ID NO:18) is from the first alpha helix of A1. Peptide-3 (SEQ ID NO:19) is from the BH4 region of Bcl-XL. The amino acid sequences of peptide 1 (SEQ ID NO:17), peptide 2 (SEQ ID NO:18), peptide 3 (SEQ ID NO:19), and the scrambled (control) peptide (SEQ ID NO:20) are set forth in Table 1.
At the end of the 3 hours of reperfusion the mice were killed, and blood was taken for determination of plasma creatine kinase (CK) concentration. The CK concentration was used as an indicator of muscle injury. Elevated levels of CK indicate higher levels of muscle injury. […] The CK concentration for peptide 1 (SEQ ID NO:17) treated mice was 19,020+/−5481 IU/L (n=12) compared with control peptide (SEQ ID NO:20) where CK concentration was 60,530+/−5759 IU/L (n=12). The CK concentration for peptide 2 (SEQ ID NO:18) treated mice was 33,860+/−5997 IU/L (n=11) compared with control peptide (SEQ ID NO:20) where CK concentration was 69,430+/−11,170 IU/L (n=12). The CK concentration for peptide 3 (SEQ ID NO:19) treated mice was 49,500+/−3,901 IU/L (n=5) compared with control peptide (SEQ ID NO:20) where CK concentration was 80,880+/−11,430 IU/L (n=6).

[2] = system: C57BL/6 mice, hind limb skeletal muscle ischemia-reperfusion injury; assay: Hind limb ischemia-reperfusion by aortic cross-clamp, plasma creatine kinase; assay type: in vivo; conditions: protein injected i.p. the day before 90 min hind limb ischemia and 180 min reperfusion; 12 mice per group; rBcl-2 1 μg per mouse vs combined rUbiquitin/vehicle; rA1 vs rUbiquitin
Description: Mouse skeletal muscle was made ischemic by cross-clamping the aorta distal to the renal artery for 90 minutes, then the clamp was removed and hind limb reperfusion continued for 3 hours. At the end of reperfusion (3 hours after clamp removal) the mice were killed, and the concentration of plasma creatine kinase (CK) was measured and used as an indicator of injury (creatine kinase concentration increases as a result of skeletal muscle injury).
Blood from EμT-Bcl-2 mice and their littermate control mice was drawn into heparin and plasma was extracted by centrifugation. One ml of plasma from EμT-Bcl-2 mice, or one ml of plasma from littermate control mice, was injected into the peritoneum of C57BL/6 mice the day before the mice were subjected to 90 minutes of ischemia and 3 hours of reperfusion as described in Example 1 herein. Blood was drawn from the mice and plasma CK concentration was determined at the end of reperfusion.
Control Jaws II cells expressed only EGFP. […]
Medium from cell cultures of hBcl-2-Jaws II cells and EGFP-Jaws II cells was harvested 24 hours after the start of incubation and concentrated approximately 10-fold using centrifugal filters with a molecular size cut-off of approximately 3 kD. […] Plasma was extracted from the mice after ischemia-reperfusion, and plasma CK concentration was determined. […]

[3] = experiment with peptide 2, n=11 peptide, n=12 control

| Molecule | plasma CK concentration ([1]; experiment with peptide 1, n=12 per group) | plasma CK concentration [1, 3] | plasma CK concentration ([1]; experiment with peptide 3, n=5 peptide, n=6 control) | plasma creatine kinase levels vs control [2] |
| --- | --- | --- | --- | --- |
| control peptide: scrambled (control) peptide; TWHMYGNQRDYIGDRSKIVYKLEYE (SEQ ID NO:20) | 60,530+/−5759 IU/L | 69,430+/−11,170 IU/L | 80,880+/−11,430 IU/L |  |
| peptide 2: from the first alpha helix of A1; FGYIYRLAQDYLQCVLQIPZPGSGP (SEQ ID NO:18) |  | 33,860+/−5997 IU/L |  |  |
| B1 |  |  |  | significantly (p<0.05) lower |
